Data published in US7659053B2, “Methods of alteration of surface affinities using non-chemical force-creating fields” (President and Fellows of Harvard College, priority 2003, dated 2010).

Each compound was assayed on BCE cells (assay: Cell motility screening assay: migration of patterned BCE cells out of patterns after voltage pulse). Settings: drug added before voltage pulse (−1.2 V, 30 s), fumagillin 100 mM, cycloheximide 1 mg/mL, nocodozole 1 mg/mL.
Type: cell-based, Bovine
Method: Time-lapse images were acquired on a Leica inverted microscope equipped with a commercially available on-stage incubation chamber that maintained the temperature at 37° C. and the CO2 concentration at 10% at all times. To prevent the evaporation of water, the culture dish was covered with a thin layer of mineral oil (Sigma-Aldrich, St. Louis, Mo.). Phase-contrast images were acquired by a Hamamatsu video camera using METAMORPH® software (Universal Imaging Inc., Downingtown, Pa.). Fluorescent images were acquired through a charge-coupled device from Hamamatsu (ORCA-ER). Quantification of cell shapes for the analysis of the fractional coverage of the surface was performed with an image analysis routine in Metamorph. Briefly, the cells were outlined and the total areas that the cells occupied were calculated. The calculated area was then divided by the total area of the field of view in the micrograph to obtain the normalized fractional coverage by cells. The LIVE/DEAD® assay kit was obtained from Molecular Probes (Eugene, Oreg.).
BCE cells were patterned on a gold-coated substrate coated with C18 and C11EG3 thiols in discrete patterned regions, similar to those shown in FIG. 1 by techniques similar to those described above in Example 1. Additionally, serum-containing media was used in some instances. […]

Compound | effect on cell migration out of the patterns
C[C@@H]1C[C@@H]([C@H](O)CC2CC(=O)NC(=O)C2)C(=O)[C@@H](C)C1 [cycloheximide] | reduce the rates of cell migration
CO[C@@H]1[C@H](OC(=O)/C=C/C=C/C=C/C=C/C(=O)O)CC[C@]2(CO2)[C@H]1[C@@]1(C)O[C@@H]1CC=C(C)C [Fumagillin, fumagillin] | reduce the rates of cell migration

These compounds were tested on NIH 3T3 fibroblast cells (assay: Culture of NIH 3T3 fibroblasts on micropatterned SAMs on gold and palladium). Settings: NIH 3T3 cells.
Type: cell-based
Method: To test the ability of SAMs on palladium to support the adhesion and growth of cells in micropatterns, certain features on the substrates were defined using microcontact printing, using techniques similar to those described above. A poly(dimethylsiloxane) (PDMS) stamp that carried microfeatures was inked with 2 mM octadecanethiol (C18) in ethanol, dried under a stream of nitrogen, then brought it into contact with the palladium films for 2 to 10 seconds. Next, the palladium film was immersed in ethanolic solutions containing 2 mM of thiols A, B, or C for up to 50 hours.
NIH 3T3 fibroblast cells were then cultured on these micropatterned substrates. […] In contrast, OEG-terminated SAMs on the same substrate prevented the adhesion of cells during the same times.

Compound | adhesion of cells on SAM region
OCCOCCOCCOCCOCCOCCOCCOCCCS [Compound 2, HS(CH2)3(OCH2CH2)7OH] | prevented the attachment of cells
CCCCCCCCCCCCCCCCCCS [Compound C18, HS—(CH2)17—CH3] | supported the adhesion of cells
OCCOCCOCCOCCCCCCCCCCCS [Compound C11EG3, HS—(CH2)11—(O—CH2—CH2)3—OH] | prevented the attachment of cells
OCCOCCOCCOCCOCCOCCOCCCCCCCCCCCS [thiol B, HS(CH2)11(OCH2CH2)6OH] | prevented the attachment of cells
